In assay [1] the test system is 80S14 (p21-deficient) cells. Nature of the assay: Cytotoxicity assay using isogenic cell lines: IC50 in 80S14 (p21-deficient) cells, SRB. Type of assay: cell-based, human. Summed up: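 80S14 (p21-deficient) cells seeded at 12,000 cells/well overnight, then exposed 5 days at 37 °C to serial dilutions (5 pM–50 μM or 170 pg/ml–10 μg/ml). TCA-fixed, sulforhodamine B-stained, absorbance at 560 nm; IC50 taken from cytotoxicity curves versus untreated controls.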

The next assay deals with LoVo Colon cell line. The assay is described as follows: Cytotoxicity assay using LoVo colon cell line, SRB. It counts as cell-based. The settings on record: read-out: Inhibition of LoVo. Summed up:
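LoVo cells (4000/well, RPMI 1640 with 10% FBS, 37 °C, 7% CO2) seeded overnight, then exposed 4 days to serial dilutions spanning 5 pM-20 μM or 170 pg/ml-10 μg/ml. Survival by SRB staining; IC50 from curves relative to untreated controls.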

Setting [2] is: Homo sapiens, 80S14, 120 h, read-out: IC50 for 80S14 (uM).
The mark [3] stands for this setting: Homo sapiens, 120 h, 80S14 p21-deficient cells, 5 days incubation, SRB, read-out: IC50 for 80SI4.
Where [4] appears, read: Homo sapiens, 96 h, LoVo colon cells, 4 days incubation, SRB.
Setting [5] is: Homo sapiens, 120 h, 80S14 (p21-deficient) cells, 5 days, SRB, class symbols, read-out: IC50 for 80S14.
[6] abbreviates: Homo sapiens, 96 h, Cellular activity in LoVo cell, 4 days incubation, SRB.

Like-named read-outs stand apart in the source and are kept apart here.

Take `CC(C)CC(=O)Nc1cc(-c2ccnc3c(C(=O)c4cccs4)cnn23)ccc1Cl` [Example 313, N-{2-Chloro-5-[3-(2-thienylcarbonyl)pyrazolo[1,5-a]pyrimidin-7-yl]phenyl}-3-Methylbutanamide]: the IC50 is below 1 µM in assay [1] (setting [2]) and below 0.1 µM in the assay with LoVo Colon cell line (Homo sapiens, LoVo, 96 h).
`O=C(Nc1cccc(-c2ccnc3c(C(=O)c4cccs4)cnn23)c1)c1ccccc1Cl` [Example 95, 2-chloro-N-{3-[3-(thien-2-ylcarbonyl)pyrazolo[1,5-a]pyrimidin-7-yl]phenyl}benzamide]: the IC50 in assay [1] (setting [3]) was below 1 µM; in the assay on LoVo Colon cell line (setting [4]), below 0.1 µM.
Regarding `CC(C)(C)COC(=O)Nc1cccc(-c2ccnc3c(C(=O)c4cccs4)cnn23)c1` [Example 17, neopentyl 3-[3-(thien-2-ylcarbonyl)pyrazolo[1,5-a]pyrimidin-7-yl]phenylcarbamate], the IC50 in assay [1] (setting [3]) was below 1 µM; with LoVo Colon cell line (setting [4]), below 0.1 µM.
With `CCCCN(C)C(=O)Nc1cccc(-c2ccnc3c(C(=O)c4cccs4)cnn23)c1` [Example 156, N-butyl-N-methyl-N′-{3-[3-(thien-2-ylcarbonyl)pyrazolo[1,5-a]primidin-7-yl]phenyl}urea], the IC50 was below 1 µM in assay [1] (80S14 p21-deficient cells, 5 days incubation, SRB, read-out: IC50 for 80SI4) and 0.1 to 1 µM in the assay on LoVo Colon cell line (LoVo colon cells, 4 days incubation, SRB).
For `CC(C)CC(=O)Nc1cccc(-c2ccnc3c(-c4cccc(-c5ccccc5)c4)cnn23)c1` [Example 485, N-{3-[3-(1,1′-Biphenyl-3-yl)pyrazolo[1,5-a]pyrimidin-7-yl]phenyl}-3-methylbutanamide], the values for the IC50 (in assay [1] (setting [5]); in the assay on LoVo Colon cell line (setting [6])) were 10 to 50 µM and 1 to 20 µM, respectively.
As for `O=C(c1cccs1)c1cnn2c(-c3cccc(-c4nnn(CC5CCC5)n4)c3)ccnc12` [Example 505, (7-{3-[2-(Cyclobutylmethyl)-2H-tetraazol-5-yl]phenyl}pyrazolo[1,5-a]pyrimidin-3-yl)(thien-2-yl)methanone], the IC50 in assay [1] (setting [5]) was below 1 µM; in the assay with LoVo Colon cell line (setting [6]) it was below 0.1 µM.
As to `O=C(Nc1cc(-c2ccnc3c(C(=O)c4cccs4)cnn23)ccc1F)c1ccccc1F` [Example 375, 2-fluoro-N-{2-fluoro-5-[3-(thien-2-ylcarbonyl)pyrazolo[1,5-a]pyrimidin-7-yl]phenyl}benzamide], the IC50 in assay [1] (setting [5]) is below 1 µM; in the assay with LoVo Colon cell line (setting [6]) it was below 0.1 µM.
Regarding `O=C(c1cccs1)c1cnn2c(-c3cccc(-c4nnn(CCN5CCOCC5)n4)c3)ccnc12` [Example 507, (7-{3-[2-(2-Morpholin-4-ylethyl)-2H-tetraazol-5-yl]phenyl}pyrazolo[1,5-a]pyrimidin-3-yl)(thien-2-yl)methanone], the figures for the IC50 (in assay [1] (setting [5]); with LoVo Colon cell line (setting [6])) were 1 to 10 µM and 0.1 to 1 µM, respectively.
As for `CCCCC(CC)CNc1cccc(-c2ccnc3c(C(=O)c4cccs4)cnn23)c1` (stereo not shown) [Example 419, (7-{3-[(2-Ethylhexyl)amino]phenyl}pyrazolo[1,5-a]pyrimidin-3-yl)(thien-2-yl)methanone], the IC50 in assay [1] (setting [5]) fell in the range of 1 to 10 µM; in the assay with LoVo Colon cell line (setting [6]), 1 to 20 µM.
Regarding `CC#CC(=O)Nc1cccc(-c2ccnc3c(C(=O)c4cccs4)cnn23)c1` [Example 274, N-{3-[3-(2-Thienylcarbonyl)pyrazolo[1,5-a]pyrimidin-7-yl]phenyl}-2-butynamide], the values for the IC50 (in assay [1] (setting [5]); in the assay with LoVo Colon cell line (setting [6])) were below 1 µM and below 0.1 µM, respectively.
For the compound `O=C(Nc1cccc(-c2ccnc3c(C(=O)c4cccs4)cnn23)c1)c1cn[nH]c1` [Example 441, N-{3-[3-(Thien-2-ylcarbonyl)pyrazolo[1,5-a]pyrimidin-7-yl]phenyl}-1H-pyrazole-4-carboxamide], the IC50 in assay [1] (setting [5]) was 10 to 50 µM; with LoVo Colon cell line (setting [6]) it was 1 to 20 µM.
With `Nc1ccc(-c2ccnc3c(C(=O)c4cccs4)cnn23)s1` [Example 345, [7-(5-Aminothien-2-yl)pyrazolo[1,5-a]pyrimidin-3-yl](thien-2-yl)methanone], the IC50 in assay [1] (setting [5]) is 10 to 50 µM; with LoVo Colon cell line (setting [6]), 1 to 20 µM.
On to `O=C(c1cccs1)c1cnn2c(-c3cccc(-c4ccn(CCN5CCCC5)n4)c3)ccnc12` [Example 520, (7-{3-[1-(2-Pyrrolidin-1-ylethyl)-1H-pyrazol-3-yl]phenyl}pyrazolo[1,5-a]pyrimidin-3-yl)(thien-2-yl)methanone], for which the figures for the IC50 (in assay [1] (setting [5]); in the assay with LoVo Colon cell line (setting [6])) were 1 to 10 µM and 0.1 to 1 µM, respectively.
Consider `O=C(Nc1ccc(Cl)c(-c2ccnc3c(C(=O)c4cccs4)cnn23)c1)c1ccccc1` [Example 341, N-{4-Chloro-3-[3-(thien-2-ylcarbonyl)pyrazolo[1,5-a]pyrimidin-7-yl]phenyl}benzamide], for which the IC50 in assay [1] (setting [5]) was 1 to 10 µM; in the assay with LoVo Colon cell line (setting [6]) it was 0.1 to 1 µM.
In the case of `O=C(Nc1cccc(-c2ccnc3c(C(=O)c4cccs4)cnn23)c1)OCC1CCC1` [Example 174, cyclobutylmethyl 3-[3-(thien-2-ylcarbonyl)pyrazolo[1,5-a]pyrimidin-7-yl]phenylcarbamate], the IC50 in assay [1] (setting [3]) was below 1 µM; in the assay on LoVo Colon cell line (setting [4]) it was below 0.1 µM.
As for `CC(C)OC(=O)Nc1ccc(-c2ccnc3c(C(=O)c4cccs4)cnn23)s1` [Example 344, Isopropyl 5-[3-(thien-2-ylcarbonyl)pyrazolo[1,5-a]pyrimidin-7-yl]thien-2-ylcarbamate], the IC50 in assay [1] (setting [5]) fell in the range of 1 to 10 µM; in the assay with LoVo Colon cell line (setting [6]) it was 1 to 20 µM.
Take `O=C(c1cccs1)c1cnn2c(-c3cccc(-c4nnn(Cc5ccncc5)n4)c3)ccnc12` [Example 510, (7-{3-[2-(Pyridin-4-ylmethyl)-2H-tetraazol-5-yl]phenyl}pyrazolo[1,5-a]pyrimidin-3-yl)(thien-2-yl)methanone]: the results for the IC50 (in assay [1] (setting [5]); in the assay with LoVo Colon cell line (setting [6])) were below 1 µM and below 0.1 µM, respectively.
For `O=C(c1cccs1)c1cnn2c(-c3cccc(NC(=O)C4CCCC4)c3)ccnc12` [Example 283, N-{3-[3-(2-Thienylcarbonyl)pyrazolo[1,5-a]pyrimidin-7-yl]phenyl}cyclopentanecarboxamide], the IC50 was below 1 µM in assay [1] (setting [5]) and below 0.1 µM in the assay with LoVo Colon cell line (setting [6]).
As for `CC(C)OC(=O)Nc1cccc(-c2ccnc3c(C(=O)c4ccsc4)cnn23)c1` [Example 293, Isopropyl 3-[3-(3-thienylcarbonyl)pyrazolo[1,5-a]pyrimidin-7-yl]phenylcarbamate], the IC50 in assay [1] (setting [2]) was below 1 µM; with LoVo Colon cell line (Homo sapiens, LoVo, 96 h), below 0.1 µM.
In the case of `O=C(O)c1ccccc1C(=O)Nc1cccc(-c2ccnc3c(C(=O)c4cccs4)cnn23)c1` [Example 443, 2-[({3-[3-(Thien-2-ylcarbonyl)pyrazolo[1,5-a]pyrimidin-7-yl]phenyl}amino)carbonyl]benzoic acid], the IC50 lay in the range of 10 to 50 µM in assay [1] (setting [5]) and 1 to 20 µM in the assay on LoVo Colon cell line (setting [6]).
The like results for `CCc1ccc(-c2cccc(-c3ccnc4c(C(=O)c5cccs5)cnn34)c2)cc1` [Example 456, [7-(4′-Ethyl-1,1′-biphenyl-3-yl)pyrazolo[1,5-a]pyrimidin-3-yl](thien-2-yl)methanone] were, in that order, below 1 µM and below 0.1 µM.
In the case of `O=C(c1cccs1)c1cnn2c(-c3cccc(NC(=S)Nc4ccccc4)c3)ccnc12` [Example 334, N-Phenyl-N′-{3-[3-(thien-2-ylcarbonyl)pyrazolo[1,5-a]pyrimidin-7-yl]phenyl}thiourea], the IC50 in assay [1] (setting [5]) was below 1 µM; with LoVo Colon cell line (setting [6]), 0.1 to 1 µM.
For `O=C(c1cccs1)c1cnn2c(-c3cccc(NCCc4ccccc4)c3)ccnc12` [Example 362, (7-{3-[(2-Phenylethyl)amino]phenyl}pyrazolo[1,5-a]pyrimidin-3-yl)(thien-2-yl)methanone], the IC50 fell in the range of 10 to 50 µM in assay [1] (setting [5]) and 1 to 20 µM in the assay on LoVo Colon cell line (setting [6]).
The like results for `CC/C=C/CNc1cccc(-c2ccnc3c(C(=O)c4cccs4)cnn23)c1` [Example 432, (7-{3-[(2E)-Pent-2-enylamino]phenyl}pyrazolo[1,5-a]pyrimidin-3-yl)(thien-2-yl)methanone] were, in that order, below 1 µM and below 0.1 µM.
Take `CC(C)CC(=O)Nc1cccc(-c2ccnc3c(-c4cccc(Cl)c4Cl)cnn23)c1` [Example 473, N-{3-[3-(2,3-Dichlorophenyl)pyrazolo[1,5-a]pyrimidin-7-yl]phenyl}-3-methylbutanamide]: the IC50 is 1 to 10 µM in assay [1] (setting [5]) and 0.1 to 1 µM in the assay on LoVo Colon cell line (setting [6]).
The like results for `O=C(Nc1cccc(-c2ccnc3c(C(=O)c4cccs4)cnn23)c1)c1cnccn1` [Example 385, N-{3-[3-(Thien-2-ylcarbonyl)pyrazolo[1,5-a]pyrimidin-7-yl]phenyl}pyrazine-2-carboxamide] were, in that order, below 1 µM and below 0.1 µM.
Consider `O=C(O)CCC(=O)Nc1cccc(-c2ccnc3c(C(=O)c4cccs4)cnn23)c1` [Example 442, 4-Oxo-4-({3-[3-(thien-2-ylcarbonyl)pyrazolo[1,5-a]pyrimidin-7-yl]phenyl}amino)butanoic acid], for which the IC50 was 10 to 50 µM in assay [1] (setting [5]) and 1 to 20 µM in the assay on LoVo Colon cell line (setting [6]).
For `CCCCNC(=O)Nc1cccc(-c2cc(C)nc3c(C(=O)c4cccs4)cnn23)c1` [Example 206, N-butyl-N′-{3-[5-methyl-3-(thien-2-ylcarbonyl)pyrazolo[1,5-a]pyrimidin-7-yl]phenyl}urea], the results for the IC50 (in assay [1] (setting [3]); in the assay with LoVo Colon cell line (setting [4])) were 1 to 10 µM and 0.1 to 1 µM, respectively.
For `Cc1cc(-c2cccc(NC(=O)Cc3cccs3)c2)n2ncc(C(=O)c3cccs3)c2n1` [Example 205, N-{3-[5-methyl-3-(thien-2-ylcarbonyl)pyrazolo[1,5-a]pyrimidin-7-yl]phenyl}-2-thien-2-ylacetamide], the IC50 in assay [1] (setting [3]) was 1 to 10 µM; in the assay on LoVo Colon cell line (setting [4]), 0.1 to 1 µM.
